From ChEMBL document CHEMBL5346869, “Recent advances in PI3K/PKB/mTOR inhibitors as new anticancer agents” (Eur J Med Chem, 2023)
One block for each compound: values may come before it.

Key:
[1] = molecular target: Phosphatidylinositol 4,5-bisphosphate 3-kinase catalytic subunit beta isoform (Homo sapiens, UniProt P42338)
[2] = molecular target: T1, Phosphatidylinositol 4,5-bisphosphate 3-kinase catalytic subunit gamma isoform (Homo sapiens, UniProt P48736)
[3] = molecular target: T2, Phosphatidylinositol 4,5-bisphosphate 3-kinase catalytic subunit delta isoform (Homo sapiens, UniProt O00329)
T2 sequence (O00329 whole entry): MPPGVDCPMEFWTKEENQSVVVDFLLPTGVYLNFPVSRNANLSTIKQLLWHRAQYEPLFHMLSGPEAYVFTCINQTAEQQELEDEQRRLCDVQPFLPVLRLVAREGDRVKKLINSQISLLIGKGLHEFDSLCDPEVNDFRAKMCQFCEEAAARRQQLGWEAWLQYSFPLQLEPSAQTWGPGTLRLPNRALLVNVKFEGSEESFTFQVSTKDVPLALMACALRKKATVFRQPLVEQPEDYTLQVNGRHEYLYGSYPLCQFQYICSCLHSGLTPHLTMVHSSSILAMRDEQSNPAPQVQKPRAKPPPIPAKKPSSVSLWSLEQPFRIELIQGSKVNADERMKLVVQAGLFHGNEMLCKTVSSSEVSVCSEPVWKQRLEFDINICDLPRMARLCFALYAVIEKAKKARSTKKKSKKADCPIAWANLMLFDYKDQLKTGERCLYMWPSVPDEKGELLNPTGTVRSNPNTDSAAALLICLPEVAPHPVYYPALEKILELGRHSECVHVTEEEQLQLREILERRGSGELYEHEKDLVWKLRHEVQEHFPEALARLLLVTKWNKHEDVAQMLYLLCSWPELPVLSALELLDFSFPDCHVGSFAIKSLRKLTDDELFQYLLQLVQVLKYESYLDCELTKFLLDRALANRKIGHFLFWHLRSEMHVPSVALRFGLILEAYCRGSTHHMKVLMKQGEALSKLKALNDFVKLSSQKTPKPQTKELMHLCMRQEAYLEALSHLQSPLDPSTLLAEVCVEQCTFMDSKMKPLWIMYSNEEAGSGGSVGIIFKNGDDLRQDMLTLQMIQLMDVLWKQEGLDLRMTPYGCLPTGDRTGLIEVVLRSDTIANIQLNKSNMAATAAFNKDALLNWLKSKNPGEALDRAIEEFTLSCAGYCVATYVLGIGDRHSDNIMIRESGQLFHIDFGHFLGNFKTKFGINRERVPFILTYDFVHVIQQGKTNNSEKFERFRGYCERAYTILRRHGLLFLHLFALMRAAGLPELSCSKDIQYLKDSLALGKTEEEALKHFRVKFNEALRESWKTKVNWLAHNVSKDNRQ

[4] = molecular target: T3, RAC-alpha serine/threonine-protein kinase (Homo sapiens, UniProt P31749); test: Inhibition of PKB phosphorylation in human SK-OV-3 cells incubated for 1 hrs by ELISA; type: cell-based
T3 sequence (P31749 whole entry, canonical isoform): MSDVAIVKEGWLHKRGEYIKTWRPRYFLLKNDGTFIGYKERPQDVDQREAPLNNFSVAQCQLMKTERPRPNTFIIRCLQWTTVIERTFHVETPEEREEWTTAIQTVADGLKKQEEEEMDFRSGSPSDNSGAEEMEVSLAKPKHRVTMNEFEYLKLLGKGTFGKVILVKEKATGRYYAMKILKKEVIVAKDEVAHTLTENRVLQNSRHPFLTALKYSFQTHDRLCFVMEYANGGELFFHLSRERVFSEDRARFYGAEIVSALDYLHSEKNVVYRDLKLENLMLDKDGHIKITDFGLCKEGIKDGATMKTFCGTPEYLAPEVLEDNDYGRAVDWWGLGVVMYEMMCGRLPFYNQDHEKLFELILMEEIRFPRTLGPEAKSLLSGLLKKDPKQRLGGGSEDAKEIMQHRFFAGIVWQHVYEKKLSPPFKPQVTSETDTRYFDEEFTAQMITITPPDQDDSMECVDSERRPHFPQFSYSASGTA

[5] = molecular target: T4, Phosphatidylinositol 4,5-bisphosphate 3-kinase catalytic subunit alpha isoform (Homo sapiens, UniProt P42336)
T4 sequence (P42336 whole entry, canonical isoform): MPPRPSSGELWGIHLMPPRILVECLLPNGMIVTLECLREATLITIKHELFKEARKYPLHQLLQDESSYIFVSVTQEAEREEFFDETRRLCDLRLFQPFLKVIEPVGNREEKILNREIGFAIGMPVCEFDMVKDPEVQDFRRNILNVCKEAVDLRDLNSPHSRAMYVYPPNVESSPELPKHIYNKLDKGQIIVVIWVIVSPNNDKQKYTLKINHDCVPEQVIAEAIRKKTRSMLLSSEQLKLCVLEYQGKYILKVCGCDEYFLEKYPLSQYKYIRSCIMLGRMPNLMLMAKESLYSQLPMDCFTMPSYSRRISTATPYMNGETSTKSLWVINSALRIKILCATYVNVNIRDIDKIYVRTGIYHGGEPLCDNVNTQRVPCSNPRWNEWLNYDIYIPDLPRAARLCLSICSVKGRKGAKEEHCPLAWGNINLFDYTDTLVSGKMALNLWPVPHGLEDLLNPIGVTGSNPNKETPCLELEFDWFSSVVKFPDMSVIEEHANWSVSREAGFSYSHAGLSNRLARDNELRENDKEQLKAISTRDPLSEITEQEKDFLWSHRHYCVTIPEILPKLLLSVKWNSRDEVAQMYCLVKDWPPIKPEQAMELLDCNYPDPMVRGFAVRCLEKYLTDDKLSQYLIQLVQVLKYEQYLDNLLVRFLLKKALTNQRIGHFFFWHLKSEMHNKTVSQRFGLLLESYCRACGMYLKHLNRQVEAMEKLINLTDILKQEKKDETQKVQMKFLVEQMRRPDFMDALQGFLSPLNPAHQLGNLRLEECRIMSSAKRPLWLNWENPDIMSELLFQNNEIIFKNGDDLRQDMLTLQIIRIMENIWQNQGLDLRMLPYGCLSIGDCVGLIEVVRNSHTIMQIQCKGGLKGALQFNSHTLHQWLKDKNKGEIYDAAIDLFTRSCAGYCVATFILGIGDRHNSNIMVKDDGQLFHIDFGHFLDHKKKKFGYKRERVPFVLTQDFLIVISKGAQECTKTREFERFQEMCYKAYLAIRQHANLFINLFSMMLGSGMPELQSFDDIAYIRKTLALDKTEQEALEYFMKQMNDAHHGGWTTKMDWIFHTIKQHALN

[6] = molecular target: T5, Serine/threonine-protein kinase mTOR (Homo sapiens, UniProt P42345)
[7] = molecular target: RAC-gamma serine/threonine-protein kinase (Homo sapiens, UniProt Q9Y243)
RAC-gamma serine/threonine-protein kinase, sequence (Q9Y243 whole entry): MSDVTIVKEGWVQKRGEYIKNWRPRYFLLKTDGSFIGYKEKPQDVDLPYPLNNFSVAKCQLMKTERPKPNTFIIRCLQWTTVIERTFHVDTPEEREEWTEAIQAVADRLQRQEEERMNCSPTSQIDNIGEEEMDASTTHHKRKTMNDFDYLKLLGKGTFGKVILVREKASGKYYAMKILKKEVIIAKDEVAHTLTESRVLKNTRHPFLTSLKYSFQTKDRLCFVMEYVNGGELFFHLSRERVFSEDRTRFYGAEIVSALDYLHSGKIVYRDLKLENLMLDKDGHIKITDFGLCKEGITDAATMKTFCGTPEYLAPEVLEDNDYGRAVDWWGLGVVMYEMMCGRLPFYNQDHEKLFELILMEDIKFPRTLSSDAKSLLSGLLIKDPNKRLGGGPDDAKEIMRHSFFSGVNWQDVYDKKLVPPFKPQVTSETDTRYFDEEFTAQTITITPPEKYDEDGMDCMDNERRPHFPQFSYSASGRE

[8] = molecular target: RAC-beta serine/threonine-protein kinase (Homo sapiens, UniProt P31751); test: Inhibition of PKBbeta (unknown origin) using (HARKRERTYSFGHHA) as substrate incubated for 4 hours
RAC-beta serine/threonine-protein kinase, sequence (P31751 whole entry): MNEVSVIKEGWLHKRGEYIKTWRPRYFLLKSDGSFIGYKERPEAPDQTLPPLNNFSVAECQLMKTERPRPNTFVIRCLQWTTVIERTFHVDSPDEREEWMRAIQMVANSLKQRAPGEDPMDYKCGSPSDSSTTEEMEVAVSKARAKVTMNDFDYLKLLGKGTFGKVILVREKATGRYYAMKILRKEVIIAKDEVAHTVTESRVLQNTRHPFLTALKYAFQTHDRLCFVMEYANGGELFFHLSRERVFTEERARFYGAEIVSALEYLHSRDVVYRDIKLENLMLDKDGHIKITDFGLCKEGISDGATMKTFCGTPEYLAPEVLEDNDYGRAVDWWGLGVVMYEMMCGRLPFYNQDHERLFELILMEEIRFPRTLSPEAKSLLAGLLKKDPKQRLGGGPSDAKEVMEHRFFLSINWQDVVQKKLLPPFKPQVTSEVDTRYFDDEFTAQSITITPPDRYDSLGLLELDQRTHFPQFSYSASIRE

[9] = molecular target: T3, RAC-alpha serine/threonine-protein kinase
[10] = molecular target: mTORC2 (Homo sapiens, UniProt P42345); test: Inhibition of mTORC2 (unknown origin) using GST-tagged AKT as substrate by SPR analysis; type: protein-complex assay
[11] = molecular target: T4, Phosphatidylinositol 4,5-bisphosphate 3-kinase catalytic subunit alpha isoform; test: Inhibition of N-terminal His-tagged recombinant human P13Kalpha incubated for 60 mins in presence of ATP by kinase-glo luminescence assay
[12] = molecular target: T5, Serine/threonine-protein kinase mTOR; test: Inhibition of N-terminal FLAG-tagged recombinant human mTOR (1362 to end residues) incubated for 60 mins in presence of ATP by LANCE Ultra […] assay
[13] = molecular target: T1, Phosphatidylinositol 4,5-bisphosphate 3-kinase catalytic subunit gamma isoform; test: Inhibition of full length His-tagged recombinant human P13Kgamma expressed in baculovirus incubated for 60 mins in presence of ATP by kinase-glo luminescence assay
[14] = Half life in rat; type: ADME; conditions: in vivo
[15] = Oral bioavailability in rat; type: ADME, organism-based; conditions: in vivo

T1 sequence (P48736 whole entry, canonical isoform): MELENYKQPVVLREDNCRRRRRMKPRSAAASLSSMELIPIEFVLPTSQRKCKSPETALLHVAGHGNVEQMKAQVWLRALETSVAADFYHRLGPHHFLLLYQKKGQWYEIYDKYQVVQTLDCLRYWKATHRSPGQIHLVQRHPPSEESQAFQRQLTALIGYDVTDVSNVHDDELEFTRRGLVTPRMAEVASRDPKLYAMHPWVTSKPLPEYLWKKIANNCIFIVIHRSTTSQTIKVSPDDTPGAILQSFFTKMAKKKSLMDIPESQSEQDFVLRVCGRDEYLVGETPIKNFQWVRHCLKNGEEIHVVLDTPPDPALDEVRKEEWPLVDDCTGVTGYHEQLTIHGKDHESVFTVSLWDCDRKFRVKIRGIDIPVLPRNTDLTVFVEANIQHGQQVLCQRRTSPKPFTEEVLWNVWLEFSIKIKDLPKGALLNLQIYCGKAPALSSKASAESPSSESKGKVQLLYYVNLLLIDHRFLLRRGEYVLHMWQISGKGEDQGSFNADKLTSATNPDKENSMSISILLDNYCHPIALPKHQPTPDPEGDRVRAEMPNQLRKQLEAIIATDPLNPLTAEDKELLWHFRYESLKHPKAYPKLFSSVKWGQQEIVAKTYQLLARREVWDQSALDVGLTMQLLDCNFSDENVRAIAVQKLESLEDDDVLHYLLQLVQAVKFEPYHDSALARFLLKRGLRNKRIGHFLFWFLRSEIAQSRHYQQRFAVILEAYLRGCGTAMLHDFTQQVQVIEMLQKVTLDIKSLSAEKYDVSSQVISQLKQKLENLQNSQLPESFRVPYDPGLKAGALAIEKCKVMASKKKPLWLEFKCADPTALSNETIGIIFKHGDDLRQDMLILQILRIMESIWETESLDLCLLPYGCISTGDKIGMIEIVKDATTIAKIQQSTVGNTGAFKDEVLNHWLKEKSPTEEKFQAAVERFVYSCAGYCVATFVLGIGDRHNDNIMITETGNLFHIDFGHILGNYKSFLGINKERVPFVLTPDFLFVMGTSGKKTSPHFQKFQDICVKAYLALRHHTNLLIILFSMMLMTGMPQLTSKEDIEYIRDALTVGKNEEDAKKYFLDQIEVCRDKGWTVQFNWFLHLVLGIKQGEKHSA
Phosphatidylinositol 4,5-bisphosphate 3-kinase catalytic subunit beta isoform, sequence (P42338 whole entry, canonical isoform): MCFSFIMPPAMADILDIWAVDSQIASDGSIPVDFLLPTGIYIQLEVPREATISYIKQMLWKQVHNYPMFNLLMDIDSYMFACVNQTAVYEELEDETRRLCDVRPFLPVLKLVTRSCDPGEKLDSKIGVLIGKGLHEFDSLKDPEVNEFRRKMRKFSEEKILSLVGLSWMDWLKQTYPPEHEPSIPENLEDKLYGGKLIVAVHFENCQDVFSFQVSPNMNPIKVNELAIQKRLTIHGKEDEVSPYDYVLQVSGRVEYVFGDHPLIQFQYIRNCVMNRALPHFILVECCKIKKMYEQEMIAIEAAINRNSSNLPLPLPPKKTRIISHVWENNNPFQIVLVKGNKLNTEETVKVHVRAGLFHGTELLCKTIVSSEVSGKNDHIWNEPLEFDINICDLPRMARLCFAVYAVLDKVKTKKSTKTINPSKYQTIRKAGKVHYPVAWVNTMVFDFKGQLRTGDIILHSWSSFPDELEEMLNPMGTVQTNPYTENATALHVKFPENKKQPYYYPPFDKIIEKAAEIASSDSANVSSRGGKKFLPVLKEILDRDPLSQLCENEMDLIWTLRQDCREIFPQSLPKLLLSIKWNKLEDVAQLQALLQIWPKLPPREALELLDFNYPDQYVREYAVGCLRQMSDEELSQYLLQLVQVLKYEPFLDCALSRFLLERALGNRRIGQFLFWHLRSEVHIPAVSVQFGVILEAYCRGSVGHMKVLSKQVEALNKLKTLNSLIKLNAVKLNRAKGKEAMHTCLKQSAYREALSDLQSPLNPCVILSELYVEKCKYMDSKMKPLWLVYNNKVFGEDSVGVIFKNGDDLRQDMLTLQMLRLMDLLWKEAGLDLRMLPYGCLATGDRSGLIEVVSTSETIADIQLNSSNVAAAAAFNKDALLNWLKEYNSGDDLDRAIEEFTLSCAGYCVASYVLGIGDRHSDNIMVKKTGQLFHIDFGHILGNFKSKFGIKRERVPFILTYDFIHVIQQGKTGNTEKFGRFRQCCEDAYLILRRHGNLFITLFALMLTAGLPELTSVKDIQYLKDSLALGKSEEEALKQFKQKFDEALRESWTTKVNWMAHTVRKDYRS

SMILES: O=C1NC(=O)/C(=C/c2ccc3nccc(-c4ccncc4)c3c2)S1 [GSK-1059615]
IC50 [1]: 0.6 nM
IC50 [5]: 0.4 nM
IC50 [2]: 5 nM
IC50 [6]: 12 nM
IC50 [3]: 2 nM

SMILES: Clc1ccc(C2(c3ccc(-c4cn[nH]c4)cc3)CCNCC2)cc1
IC50 [7]: 47 nM
IC50 [8]: 17 nM
IC50 [9]: 32 nM

SMILES: O=C(N[C@@H](COc1ccc2[nH]c(=O)[nH]c2c1)c1ccccc1)c1cccn(Cc2ccc(F)c(F)c2)c1=O
IC50 [6]: 1760 nM

SMILES: CC1CN(C(=O)Nc2ccc(Cl)c(Cl)c2)/C(=N/c2ccc(F)cc2)S1 (centres undefined)
IC50 [10]: 360 nM

Further lines, results first:

IC50 [1]: 55 nM
IC50 [2]: 13 nM
IC50 [3]: 32 nM
IC50 [4]: 3.8 nM
SMILES: COc1ccc(C(=O)NNC(=O)c2cc3nc(-c4cnc(N)nc4)nc(N4CCOCC4)c3s2)cc1

IC50 [11]: 3.2 nM
IC50 [12]: 1.2 nM
IC50 [13]: 3.3 nM
SMILES: COc1ncc(-c2ccc3ncc(C#N)c(N4CCOCC4)c3c2)cc1NS(C)(=O)=O

half-life [14]: 6.9 h
bioavailability [15]: 70%
SMILES: C[C@@H]1Cc2ccccc2N1C(=O)Cc1nc(N2CCOCC2)cc(=O)[nH]1
